Like-named read-outs stand apart in the source and are kept apart here.
Assay: Clinical study of the effect of food and antacid on pharmacokinetics after a single oral 40 mg tablet in healthy subjects
Type: in vivo, human
Details: for Tmax / Cmax / half-life / AUC: single 40 mg oral tablet; for Tmax: median; for Cmax / half-life / AUC: po, 40 mg, mean
Experimental: and or the bisulfate salt thereof in healthy subjects was studied in a clinical trial. The primary objective of the study was to evaluate the effect of food (standardized high-fat breakfast) and antacid (increased gastric pH) on the pharmacokinetics (PK) of
and or the bisulfate salt thereof administered orally as a 40 mg tablet. A secondary objective was to evaluate the effect of meal timing relative to fasting on the PK of
The study was designed as a randomized, open-label, single-dose, parallel-group, single-center study conducted in healthy young adults in conformance with Good Clinical Practice. Healthy male and female subjects between the ages of 18 and 45 years with a body mass index of 19-32 kg/m^2 were eligible for enrollment. Eligible subjects were randomly assigned to receive a single 40 mg dose of
basis on Days 7, 14, 21, 28, 35, and 42 (±1 day) after dosing. The bioanalytical assay was an LC-MS/MS assay, LLOQ=1.00 ng/mL.

[1] = 40 mg tablet immediately with food vs fasted
[2] = 1 hr after food vs fasted, 40 mg tablet
[3] = 2 hr after food vs fasted, 40 mg tablet
[4] = Fed (immediately with food) vs fasted, 40 mg tablet
[5] = antacid co-administration vs alone, fasted subjects
[6] = fasted subjects, with antacid vs alone, 40 mg tablet

increase of peak plasma concentration (Cmax) [1]: 31%
increase of systemic exposure (AUC[l]) [1]: 43%
Tmax (1 hour after food): 0.083 days
Ratio Estimate Fed vs Fasted, AUC(I) (relative bioavailability) [2]: 143
Ratio Estimate Fed vs Fasted, Cmax (relative bioavailability) [2]: 117
Tmax (2 hours after food): 0.083 days
Ratio Estimate Fed vs Fasted, AUC(I) (relative bioavailability) [3]: 127
Ratio Estimate Fed vs Fasted, Cmax (relative bioavailability) [3]: 137
Tmax (Fasted with antacid): 0.083 days
Ratio Estimate Fed vs Fasted, AUC(I) (relative bioavailability) [4]: 143
Ratio Estimate Fed vs Fasted, Cmax (relative bioavailability) [4]: 131
reduction of peak plasma concentration (Cmax) [5]: 38%
reduction of systemic exposure (AUC[l]) [5]: 15%
Cmax (both sexes, human, plasma, 1 hour after food (high-fat breakfast)): 298 ng/mL
half-life (both sexes, human, plasma, 1 hour after food, n = 9): 12 days
AUC (both sexes, human, plasma, 1 hour after food, n = 9, read-out: AUC(I)): 26800 ng·h/mL
AUC (both sexes, human, plasma, 1 hour after food, read-out: AUC(tf)): 23200 ng·h/mL
Cmax (both sexes, human, plasma, 2 hours after food (high-fat breakfast)): 355 ng/mL
half-life (both sexes, human, plasma, 2 hours after food, n = 9): 10.1 days
AUC (both sexes, human, plasma, 2 hours after food, n = 9, read-out: AUC(I)): 23400 ng·h/mL
AUC (both sexes, human, plasma, 2 hours after food, read-out: AUC(tf)): 22400 ng·h/mL
Cmax (both sexes, human, plasma, Fasted with antacid (20 mL Gaviscon extra-strength liquid)): 165 ng/mL
half-life (both sexes, human, plasma, Fasted with antacid, n = 18): 10.2 days
AUC (both sexes, human, plasma, Fasted with antacid, n = 18, read-out: AUC(I)): 15800 ng·h/mL
AUC (both sexes, human, plasma, Fasted with antacid, read-out: AUC(tf)): 15000 ng·h/mL
Cmax (both sexes, human, plasma, Fasted without antacid (after 10-hour fast), healthy subjects): 262 ng/mL
half-life (both sexes, human, plasma, Fasted without antacid, healthy subjects, n = 19): 10 days
AUC (both sexes, human, plasma, Fasted without antacid, healthy subjects, n = 19, read-out: AUC(I)): 18400 ng·h/mL
AUC (both sexes, human, plasma, Fasted without antacid, healthy subjects, read-out: AUC(tf)): 16800 ng·h/mL
half-life (both sexes, human, plasma, Fed (immediately with food), n = 18): 10.9 days
AUC (both sexes, human, plasma, Fed (immediately with food), n = 18, read-out: AUC(I)): 26600 ng·h/mL
AUC (both sexes, human, plasma, Fed (immediately with food), read-out: AUC(tf)): 22800 ng·h/mL
Cmax (both sexes, human, plasma, Fed (within 5 minutes of completing standardized high-fat breakfast)): 347 ng/mL
Tmax (both sexes, human, plasma, Fed (immediately with food), read-out: Tmax): 0.125 days
Ratio Estimate with vs without Antacid, AUC(I) (relative bioavailability) [6]: 85
Ratio Estimate with vs without Antacid, Cmax (relative bioavailability) [6]: 62
SMILES: CCOC(=O)N[C@@H]1CC[C@@H]2[C@@H](C1)C[C@H]1C(=O)O[C@H](C)[C@H]1[C@H]2/C=C/c1ccc(-c2cccc(F)c2)cn1 [SCH 530348, ethyl [(R1R,3aR,4aR,6R,8aR,9S,9aS)-9-[(E)-2-[5-(3-fluorophenyl)-2-pyridinyl]ethenyl]-dodecahydro-1-methyl-3-oxonaphtho[2,3-c]furan-6-yl] carbamate]
